Test results reported in patent publication US20080219998A1, “Anti-Thrombotic Agents” (priority 2001, published 2008).
No end group written: not given here.

System: intrinsic pathway
Assay: activated partial thromboplastin time (APTT) screening coagulation assay
Type: biochemical
Conditions: phage expressing the peptide tested; APTT is a standard screening marker of the activity of the intrinsic pathway
Excerpt: While in vitro or animal testing are not acceptable tools for establishing the safety thus usefulness of drugs, such as anticoagulants, screening compounds for specificity towards factor XI, thus potential utility in the clinic, is an necessary intermediate step in practicing this invention. In such an effort, several FXI-specific peptides have been created using standard phage display technology. […] One example of such a phage is given here. Amino acid sequencing of the peptide expressed by this phage yields Gln-Lys-Met-Gln-His-Gly-Ile-Trp-Asn-Arg-Thr-Ala using standard technology. The phage expressing the peptide is then tested in screening coagulation assays, such as activated partial thromboplastin time (APTT) and prothrombin time (PT). […] This peptide, and other inhibitory compounds with FXI specificity, such as Gln-Gln-Val-Ala-Asn-Trp-Ser-Met-Ser-Pro-Ala, are considered only as examples of intermediate steps in identifying and preparing compounds of this invention that can exclusively reduce FXI activity. Other methods of screening exist.

QKMQHGIWNRTA [FXI-specific peptide from phage display, tested as the phage expressing it]
prolongation of APTT: significant prolongation
